# Laboratory results taken from ChEMBL document CHEMBL3864146, “5-Alkyloxytryptamines are membrane-targeting, broad-spectrum antibiotics” (Bioorg Med Chem Lett, 2016).
# The source made the active and inactive calls. The calls are words filed in the database; no cut-off is given here.
# Tests used:
# [1] = system: Bacillus subtilis; assay: Antibacterial activity against Bacillus subtilis 168 after 16 to 18 hrs by micro-dilution method; type: functional; conditions: subsp. subtilis str. 168
# [2] = system: Shigella boydii; assay: Antibacterial activity against Shigella boydii after 16 to 18 hrs by micro-dilution method; type: functional
# [3] = system: Staphylococcus aureus; assay: Antibacterial activity against Staphylococcus aureus after 16 to 18 hrs by micro-dilution method; type: functional
# [4] = system: Klebsiella aerogenes; assay: Antibacterial activity against Enterobacter aerogenes after 16 to 18 hrs by micro-dilution method; type: functional
# [5] = system: Klebsiella pneumoniae; assay: Antibacterial activity against Klebsiella pneumoniae after 16 to 18 hrs by micro-dilution method; type: functional
# [6] = system: Acinetobacter baumannii; assay: Antibacterial activity against Acinetobacter baumannii after 16 to 18 hrs by micro-dilution method; type: functional
# [7] = system: Pseudomonas aeruginosa; assay: Antibacterial activity against Pseudomonas aeruginosa after 16 to 18 hrs by micro-dilution method; type: functional
# [8] = system: Vibrio cholerae; assay: Antibacterial activity against Vibrio cholerae after 16 to 18 hrs by micro-dilution method; type: functional
# [9] = system: Escherichia coli; assay: Antibacterial activity against Escherichia coli BW25113 after 16 to 18 hrs by micro-dilution method; type: functional
# [10] = system: Escherichia coli; assay: Antibacterial activity against tolC-deficient Escherichia coli BW25113 after 16 to 18 hrs by micro-dilution method; type: functional
# [11] = system: Edwardsiella tarda; assay: Antibacterial activity against Edwardsiella tarda after 16 to 18 hrs by micro-dilution method; type: functional
# [12] = system: Salmonella typhimurium; assay: Antibacterial activity against Salmonella typhimurium after 16 to 18 hrs by micro-dilution method; type: functional, Salmonella enterica subsp. enterica serovar Typhimurium; conditions: Salmonella enterica
# [13] = system: Morganella morganii; assay: Antibacterial activity against Morganella morganii after 16 to 18 hrs by micro-dilution method; type: functional
# [14] = system: Morganella morganii; assay: Bactericidal activity against Morganella morganii after 22 hrs by micro-dilution method; type: functional
# [15] = system: Klebsiella aerogenes; assay: Bactericidal activity against Enterobacter aerogenes after 22 hrs by micro-dilution method; type: functional
# [16] = system: Acinetobacter baumannii; assay: Bactericidal activity against Acinetobacter baumannii after 22 hrs by micro-dilution method; type: functional
# [17] = system: Escherichia coli; assay: Antibacterial activity against Escherichia coli 5-NOT mutant 15-1 harboring thrS gene mutation by multiple copy suppression assay; type: functional
# [18] = system: Klebsiella pneumoniae; assay: Ratio of MBC to MIC for Klebsiella pneumoniae; type: functional
# [19] = system: Escherichia coli; assay: Bactericidal activity against Escherichia coli BW25113 after 22 hrs by micro-dilution method; type: functional; conditions: BW25113, 22 h
# [20] = species on record: Homo sapiens; assay: Selectivity ratio of Ki for 5-HT1A receptor (unknown origin) to Ki for human 5-HT1D receptor
# [21] = system: Klebsiella aerogenes; assay: Ratio of MBC to MIC for Enterobacter aerogenes; type: functional
# [22] = system: Escherichia coli; assay: Ratio of MBC to MIC for Escherichia coli BW25113 after 16 to 18 hrs by micro-dilution method; type: functional
# [23] = system: Pseudomonas aeruginosa; assay: Ratio of MBC to MIC for Pseudomonas aeruginosa; type: functional
# [24] = system: Shigella boydii; assay: Ratio of MBC to MIC for Shigella boydii; type: functional
# [25] = system: Escherichia coli; assay: Antibacterial activity against Escherichia coli 5-NOT mutant 8 harboring otsA gene mutation by multiple copy suppression assay; type: functional
# [26] = system: Staphylococcus aureus; assay: Ratio of MBC to MIC for Staphylococcus aureus; type: functional
# [27] = system: Streptococcus pyogenes; assay: Ratio of MBC to MIC for Streptococcus pyogenes; type: functional
# [28] = system: Acinetobacter baumannii; assay: Ratio of MBC to MIC for Acinetobacter baumannii; type: functional
# [29] = system: Escherichia coli; assay: Adjuvant activity assessed as potentiation of ciprofloxacin-induced antibacterial activity against Escherichia coli BW25113 at 0.25 times MIC after 16 to 18 hrs by checkerboard assay (reference value: 13 ng/ml); type: functional
# [30] = system: Edwardsiella tarda; assay: Bactericidal activity against Edwardsiella tarda after 22 hrs by micro-dilution method; type: functional
# [31] = system: Shigella boydii; assay: Bactericidal activity against Shigella boydii after 22 hrs by micro-dilution method; type: functional
# [32] = system: Escherichia coli; assay: Bactericidal activity against tolC-deficient Escherichia coli BW25113 after 22 hrs by micro-dilution method; type: functional; conditions: BW25113, 22 h
# [33] = system: Escherichia coli; assay: Induction of membrane permeabilization in Escherichia coli BW25113 at MIC after 15 mins by propidium iodide staining-based fluorescence microplate reader method relative to 50% ethanol; type: functional
# [34] = system: Salmonella typhimurium; assay: Ratio of MBC to MIC for Salmonella typhimurium; type: functional, Salmonella enterica subsp. enterica serovar Typhimurium
# [35] = system: Escherichia coli; assay: Adjuvant activity assessed as potentiation of chloramphenicol-induced antibacterial activity against Escherichia coli BW25113 at 0.5 times MIC after 16 to 18 hrs by checkerboard assay (reference value: 8 ng/ml); type: functional
# [36] = system: Escherichia coli; assay: Adjuvant activity assessed as potentiation of tetracycline-induced antibacterial activity against Escherichia coli BW25113 at 0.5 times MIC after 16 to 18 hrs by checkerboard assay (reference value: 2 ng/ml); type: functional
# [37] = system: Escherichia coli; assay: Antibacterial activity against Escherichia coli 5-NOT mutant 8 harboring ydeA gene mutation by multiple copy suppression assay; type: functional
# [38] = system: Escherichia coli; assay: Adjuvant activity assessed as potentiation of tetracycline-induced antibacterial activity against Escherichia coli BW25113 at 0.25 times MIC after 16 to 18 hrs by checkerboard assay (reference value: 2 ng/ml); type: functional
# [39] = system: Escherichia coli; assay: Adjuvant activity assessed as potentiation of ciprofloxacin-induced antibacterial activity against Escherichia coli BW25113 at 0.5 times MIC after 16 to 18 hrs by checkerboard assay (reference value: 13 ng/ml); type: functional
# [40] = system: Bacillus subtilis; assay: Ratio of MBC to MIC for Bacillus subtilis 168; type: functional, subsp. subtilis str. 168
# [41] = system: Escherichia coli; assay: Adjuvant activity assessed as potentiation of rifampicin-induced antibacterial activity against Escherichia coli BW25113 at 0.5 times MIC after 16 to 18 hrs by checkerboard assay (reference value: 8 ng/ml); type: functional
# [42] = system: Morganella morganii; assay: Ratio of MBC to MIC for Morganella morganii; type: functional
# [43] = system: Streptococcus pyogenes; assay: Antibacterial activity against Streptococcus pyogenes after 16 to 18 hrs; type: functional
# [44] = system: Vibrio cholerae; assay: Bactericidal activity against Vibrio cholerae after 22 hrs by micro-dilution method; type: functional
# [45] = system: Escherichia coli; assay: Adjuvant activity assessed as potentiation of chloramphenicol-induced antibacterial activity against Escherichia coli BW25113 at 0.25 times MIC after 16 to 18 hrs by checkerboard assay (reference value: 8 ng/ml); type: functional
# [46] = system: Escherichia coli; assay: Antibacterial activity against Escherichia coli 5-NOT mutant 15-1 harboring pykA gene mutation by multiple copy suppression assay; type: functional
# [47] = system: Edwardsiella tarda; assay: Ratio of MBC to MIC for Edwardsiella tarda; type: functional
# [48] = system: Escherichia coli; assay: Antibacterial activity against Escherichia coli 5-NOT mutant 8 harboring pykA gene mutation by multiple copy suppression assay; type: functional
# [49] = system: Escherichia coli; assay: Adjuvant activity assessed as potentiation of rifampicin-induced antibacterial activity against Escherichia coli BW25113 at 0.25 times MIC after 16 to 18 hrs by checkerboard assay (reference value: 8 ng/ml); type: functional
# [50] = system: Staphylococcus aureus; assay: Bactericidal activity against Staphylococcus aureus after 22 hrs by micro-dilution method; type: functional
# [51] = system: Klebsiella pneumoniae; assay: Bactericidal activity against Klebsiella pneumoniae after 22 hrs by micro-dilution method; type: functional
# [52] = system: Salmonella typhimurium; assay: Bactericidal activity against Salmonella typhimurium after 22 hrs by micro-dilution method; type: functional, Salmonella enterica subsp. enterica serovar Typhimurium; conditions: Salmonella enterica
# [53] = system: Escherichia coli; assay: Ratio of MBC to MIC for tolC-deficient Escherichia coli BW25113; type: functional
# [54] = system: Vibrio cholerae; assay: Ratio of MBC to MIC for Vibrio cholerae; type: functional
# [55] = system: Bacillus subtilis; assay: Bactericidal activity against Bacillus subtilis 168 after 22 hrs by micro-dilution method; type: functional; conditions: subsp. subtilis str. 168, 22 h
# [56] = system: Streptococcus pyogenes; assay: Bactericidal activity against Streptococcus pyogenes after 22 hrs; type: functional
# [57] = system: Escherichia coli; assay: Antibacterial activity against Escherichia coli BW25113 by multiple copy suppression assay; type: functional
# [58] = system: Escherichia coli; assay: Antibacterial activity against Escherichia coli 5-NOT mutant 15-1 harboring ydeA gene mutation by multiple copy suppression assay; type: functional
# [59] = system: Escherichia coli; assay: Induction of membrane permeabilization in Escherichia coli BW25113 at MIC to 2 times MIC after 5 mins by propidium iodide staining-based flow cytometric method; type: functional
# [60] = system: Pseudomonas aeruginosa; assay: Bactericidal activity against Pseudomonas aeruginosa after 22 hrs by micro-dilution method; type: functional
compound,measurement,setting,value
CCCCCCCCCOc1ccc2[nH]cc(CCNC(=O)OC(C)(C)C)c2c1,MIC,[1],> 130 µg/mL
same,MIC,[2],> 130 µg/mL
same,MIC,[3],> 130 µg/mL
same,MIC,[4],> 130 µg/mL
same,MIC,[5],> 130 µg/mL
same,MIC,[6],> 130 µg/mL
same,MIC,[7],> 130 µg/mL
same,MIC,[8],> 130 µg/mL
same,MIC,[9],> 130 µg/mL
same,MIC,[10],> 130 µg/mL
same,MIC,[11],> 130 µg/mL
same,MIC,[12],> 130 µg/mL
same,MIC,[13],> 130 µg/mL
CCCCCCCCCOc1ccc2[nH]ccc2c1,MIC,[1],> 83 µg/mL
same,MIC,[2],> 83 µg/mL
same,MIC,[3],> 83 µg/mL
same,MIC,[4],> 83 µg/mL
same,MIC,[5],> 83 µg/mL
same,MIC,[6],> 83 µg/mL
same,MIC,[7],> 83 µg/mL
same,MIC,[8],> 83 µg/mL
same,MIC,[9],> 83 µg/mL
same,MIC,[10],> 83 µg/mL
same,MIC,[11],> 83 µg/mL
same,MIC,[12],> 83 µg/mL
same,MIC,[13],> 83 µg/mL
CCCCCCCCCOc1cccc(N)c1,MIC,[1],40 µg/mL
same,MIC,[2],> 80 µg/mL
same,MIC,[3],> 80 µg/mL
same,MIC,[4],> 80 µg/mL
same,MIC,[5],> 80 µg/mL
same,MIC,[6],> 80 µg/mL
same,MIC,[7],> 80 µg/mL
same,MIC,[8],> 80 µg/mL
same,MIC,[9],> 40 µg/mL
same,MIC,[10],10 µg/mL
same,MIC,[11],> 80 µg/mL
same,MIC,[12],> 80 µg/mL
same,MIC,[13],> 80 µg/mL
CCCCCCCCCOc1ccc2[nH]cc(CCN)c2c1.Cl,MBC,[14],24 µg/mL
same,MBC,[15],> 24 µg/mL
same,MIC,[1],0.76 µg/mL
same,MBC,[16],6 µg/mL
same,MIC,[17],80 µM
same,Ratio,[18],1
same,MBC,[19],12 µg/mL
same,Ratio Ki,[20],300
same,Ratio,[21],>4
same,Ratio,[22],2
same,Ratio,[23],4
same,Ratio,[24],1
same,MIC,[25],80 µM
same,MIC,[2],6 µg/mL
same,Ratio,[26],2
same,Ratio,[27],1
same,Ratio,[28],1
same,MIC,[29],0.013 µg/mL
same,MBC,[30],12 µg/mL
same,MBC,[31],6 µg/mL
same,MIC,[3],6 µg/mL
same,MBC,[32],6 µg/mL
same,Activity,[33],100%
same,MIC,[4],6 to 24 µg/mL
same,MIC,[5],6 µg/mL
same,MIC,[6],6 µg/mL
same,MIC,[7],24 to 96 µg/mL
same,Ratio,[34],4
same,MIC,[35],0.008 µg/mL
same,MIC,[36],0.002 µg/mL
same,MIC,[37],80 µM
same,MIC,[38],0.002 µg/mL
same,MIC,[8],6 to 24 µg/mL
same,MIC,[39],0.013 µg/mL
same,Ratio,[40],1
same,MIC,[41],0.008 µg/mL
same,Ratio,[42],2
same,MIC,[43],24 µg/mL
same,MBC,[44],24 µg/mL
same,MIC,[9],6 µg/mL
same,MIC,[45],0.008 µg/mL
same,MIC,[46],80 µM
same,Ratio,[47],2
same,MIC,[48],80 µM
same,MIC,[49],0.008 µg/mL
same,MBC,[50],6 µg/mL
same,MIC,[10],1.5 µg/mL
same,MBC,[51],6 µg/mL
same,MBC,[52],24 µg/mL
same,Ratio,[53],4
same,Ratio,[54],4
same,MBC,[55],0.76 µg/mL
same,MBC,[56],24 µg/mL
same,MIC,[11],6 to 12 µg/mL
same,MIC,[57],80 µM
same,MIC,[58],80 µM
same,Activity,[59],Active
same,MIC,[12],6 to 24 µg/mL
same,MBC,[60],96 µg/mL
same,MIC,[13],12 to 24 µg/mL
NCCc1c[nH]c2ccc(O)cc12 [SEROTONIN],MIC,[1],> 56.4 µg/mL
same,MIC,[3],> 56.4 µg/mL
same,MIC,[6],> 56.4 µg/mL
same,MIC,[9],> 56.4 µg/mL
same,MIC,[10],> 56.4 µg/mL
